Test results taken from paper PMC7563358, “Prolonging the Half-Life of Histone Deacetylase Inhibitor Belinostat via 50 nm Scale Liposomal Subcutaneous Delivery System for Peripheral T-Cell Lymphoma” (Cancers, 2020).
Converted amounts (≈) assume the structure as drawn. Like-named read-outs stand apart in the source and are kept apart here.

How the values were obtained:
[1] = In vitro release by dialysis method with fitting to release models; type: physicochemical
Method: An in vitro release study was performed using a dialysis method. Dialysis bags with a molecular-weight cutoff of 6000–8000 Da (pore size 1.8 nm; Orange Scientific, Braine-l’Alleud, Belgium) were soaked with distilled deionized water for 12 h before the experiment. Dialysis bags containing SN38-loaded liposomes, or SN38 solution, were subsequently incubated in flasks containing 15 mL medium (phosphate buffered saline/ethanol 1:1 v/v) in a 37 °C water bath. At appropriate intervals, 500 μL aliquots of the medium were withdrawn for analysis and immediately replaced with an equal volume of fresh medium. Release kinetics were investigated using different models, including zero-order, first-order and Higuchi kinetics. Correlation coefficients and each release equation were calculated from the respective plots.

[2] = test system: HuT-78 cells; assay: Cell cytotoxicity (CCK-8) on HuT-78; type: cell-based; conditions: Homo sapiens, HuT78; HuT-78, 72 h, CCK-8, n = 6
Method: (§1) The cutaneous T-cell lymphoma cell line (HuT-78) was purchased from the Bioresource Collection and Research Center (BCRC, Hsinchu, Taiwan). HuT-78 cells were incubated in 79% Iscove’s modified Dulbecco’s medium (IMDM) with 20% FBS and 1% liquid penicillin–streptomycin and kept in a humidified atmosphere containing 5% CO2 at 37 °C. HuT-78 cells were seeded on 96 well culture plates at a cell density of 1.5 × 10^5 cells per well. After overnight incubation, the medium was replaced with fresh medium containing belinostat free drug and belinostat-loaded liposomal formulations at final concentrations of 0.05, 0.1, 0.5, 1, 5 and 10 μM for 72 h. Cells were washed with PBS and reacted with 10 μL Cell Counting Kit-8 (CCK-8, Dojindo, Kumamoto, Japan) for 2 h. The absorbance was read at 450 nm by an enzyme-linked immunosorbent-assay reader (BioTek Epoch; Thermo Fisher Scientific, Waltham, MA, USA) to measure the quantity of surviving cells. IC50 was calculated using a four-parameter logistic function standard curve analysis of the dose response. The cell cytotoxicity was calculated using the following equation:(2) Cell viability %= ODsample−ODblank/ODcontrol−ODblank×100 % where OD denotes the optical density, ODcontrol represents 100% survival, and ODblank represents no cells.

[3] = In vivo pharmacokinetics after subcutaneous administration; conditions: Balb/c mice, single dose 0.333 mg/g
Method: The in vivo pharmacokinetic study was performed on healthy male BALB/c mice (weight: 16–20 g) obtained from the Laboratory Animal Center of the National Science Council, Taipei, Taiwan. All animal experiments were conducted in accordance with institutional guidelines and approved by the Animal Care and Use Committee of Kaohsiung Medical University, Kaohsiung, Taiwan (KMUIACUC-107146). All animals were starved overnight prior to the experiments.
BALB/c mice were anesthetized by halothane vapor with a vaporizer system. Mice were randomly divided into four groups, including the control group. Belinostat was dissolved in a mixture of 10% DMSO, 10% Cremophor EL, 80% water and a series of liposomal formulations (PC group, PS group, and PC/PS mixture group). It was then administered by subcutaneous injection with a dose of 0.33 mg/g. At time intervals of 5, 10 and 30 min and 1, 2, 3 and 4 h, 100 μL tail vein blood samples were collected in heparin-containing tubes (Vacutainer; BD, Franklin Lakes, NJ, USA) and immediately centrifuged at 3000× g for 10 min. The plasma was collected and stored at −20 °C. Mice were killed at the final time point and liver, spleen, lungs and kidneys were collected, washed with PBS and stored at −20 °C.
Plasma samples (40 μL) were mixed with 20 μL of internal standard solution (carbamazepine […]) and 1000 μL of methanol was added to induce protein precipitation. The mixture was centrifuged at 3000× g for 10 min and the supernatant was evaporated under vacuum for 2 h. The final dry residue was resuspended in methanol and analyzed by HPLC. Organs were homogenized in 1 mL PBS at 17,800 rpm for 30 s. Subsequently, following the same process, homogenized organs were mixed with internal standard solution and acetonitrile and analyzed by HPLC.
Correlation coefficients for the pharmacokinetic compartmental model were calculated and predicted using Phoenix WinNonlin V8.1 software (Certara, St. Louis, MO, USA). The area under the concentration–time curve (AUC0–∞) was calculated using the trapezoidal rule. Half-life (T½) and the clearance (Cl), volume of distribution (Vd), absorption rate (Ka) and elimination rate (Ke) were also calculated by software.

[4] = In vitro cytotoxicity of PBMCs; type: cell-based; conditions: male, human, peripheral blood mononuclear cells (PBMCs); 10 μM of belinostat
Method: as §1, with “Cells were washed with PBS and reacted with 10 μL Cell Counting Kit-8 (CCK-8, Dojindo, Kumamoto, Japan) for 2 h.” left out
Human peripheral blood mononuclear cells (PBMCs) were isolated from the peripheral blood from a healthy volunteer. […] After overnight incubation, the cytotoxicity assay was evaluated. […]

[5] = In vivo toxicity: complete blood count and liver function markers; conditions: balb/c mice, subcutaneous, 0.333 mg/g, four hours after treatment
Method: BALB/c mice were administered with subcutaneous injections with doses of 0.33 mg/g of belinostat free drug and belinostat-loaded liposomal formulations. […] Blood was analyzed for number of erythrocytes, platelets (Plt) and total white blood cells using an automated blood analyzer (XT-1800i; Sysmex, Kobe, Japan). Hemoglobin, red blood cells and hepatic function were also analyzed. Reference values were obtained from Charles River Laboratory. ALT and AST were also evaluated.

[6] = pH 7.4; cited from earlier work
[7] = set-up: method as in PMID 26921086; conditions: cited from earlier work
[8] = cited from earlier work

Time until release completely exhausted [1]: ≤ 4 h | Initial burst release ([1]; within 2 h): 80% | Cl ([3]; n = 3): 404.50 ± 138.35 L/h/kg | Ka (absorption rate) ([3]; n = 3): 5.06 ± 2.00 h⁻¹ | Vd ([3]; n = 3): 1735.75 ± 414.86 L/kg | AUC(0-inf) ([3]; male, mouse, plasma, sc, n = 3): 17500 ± 5990 ng·h/mL | Cmax ([3]; male, mouse, plasma, sc, n = 3): 3390 ± 740 ng/mL | Tmax ([3]; male, mouse, plasma, sc, n = 3): 0.69 ± 0.31 h | half-life ([3]; male, mouse, plasma, sc, n = 3): 3.29 ± 1.84 h | k el ([3]; male, mouse, plasma, sc, n = 3, read-out: Ke (elimination rate) (converted)): 6.94e-05 s⁻¹
SMILES: O=C(/C=C/c1cccc(S(=O)(=O)Nc2ccccc2)c1)NO [belinostat, Belinostat]
IC50 [2]: 1800 ± 160 nM | viability at 72 h, 10 µM [4]: 20% | ALT [5]: 125 ± 4.57 U/L | Gra [5]: 13.47 ± 3.21% | Hb [5]: 13.63 ± 2.16 g/dL | Hct [5]: 39.58 ± 3.80% | Lym [5]: 78.21 ± 6.56% | Mon [5]: 10.95 ± 2.52% | Plt count [5]: 230 ± 45.72 10^9/L | RBC count [5]: 9.29 ± 1.28 10^12/L | ST [5]: 290 ± 34.48 U/L | WBC count [5]: 3.42 ± 0.67 10^9/L | Solubility [6]: 80 µg/mL (≈ 251 µM) | half-life [7]: 1.1 h | Patients with low platelet count [8]: 10–29% | Patients with low red blood cell counts ([8]; intravenous (IV) infusion over 30 min): more than 30%
